In PubChem BioAssay AID330 (DTP/NCI, 2004):
Several values for one entry are separate records, joined by “and”; a condition that tells them apart may be missing. Identical values can stand only once. Toxic doses and inconclusive results are not listed.

System: P388 leukemia ip, CD2F1 mice, survival T/C
Assay: NCI In Vivo Anticancer Drug Screen. Data for tumor model P388 Leukemia (intraperitoneal) in CD2F1 (CDF1) mice
Settings: endpoint: median survival time, higher = longer survival
In short: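 Mice carrying the transplanted tumor received test compound or vehicle. Survival was recorded in each group, and the value is the treated-group measurement divided by that of the vehicle-treated control group.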

[1] = dose: 60.0 mg/kg/injection, schedule: Q01DX005 (ip), vehicle: saline with Tween-80
[2] = dose: 120.0 mg/kg/injection, schedule: Q01DX005 (ip), vehicle: saline with Tween-80
[3] = dose: 100.0 mg/kg/injection, schedule: Q04DX003 (ip), vehicle: Klucel (hydroxypropylcellulose) (HPC)
[4] = dose: 200.0 mg/kg/injection, schedule: Q04DX003 (ip), vehicle: Klucel (hydroxypropylcellulose) (HPC)
[5] = dose: 100.0 mg/kg/injection, schedule: Q01DX009 (ip), vehicle: saline with Tween-80
[6] = dose: 12.5 mg/kg/injection, schedule: Q01DX009 (ip), vehicle: saline with Tween-80
[7] = dose: 25.0 mg/kg/injection, schedule: Q01DX009 (ip), vehicle: saline with Tween-80
[8] = dose: 50.0 mg/kg/injection, schedule: Q01DX005 (ip), vehicle: Klucel (hydroxypropylcellulose) (HPC)
[9] = dose: 100.0 mg/kg/injection, schedule: Q01DX005 (ip), vehicle: Klucel (hydroxypropylcellulose) (HPC)

SMILES: COC(=O)c1nnn(-c2cccc(Cl)c2)c1N
- T/C [1]: 95 % of control
- T/C [2]: 95 % of control

SMILES: Cc1ccc(S(=O)(=O)OCCN(CCN(CCOS(=O)(=O)c2ccc(C)cc2)c2ccccc2)c2ccccc2)cc1
- T/C [3]: 99 % of control
- T/C [4]: 110 % of control
- T/C (dose: 400.0 mg/kg/injection, schedule: Q04DX003 (ip), vehicle: Klucel (hydroxypropylcellulose) (HPC)): 101 % of control

SMILES: COc1ccccc1NC(=O)C1=C(C)NC(C)=C(C(=O)Nc2ccccc2OC)C1c1ccc(OC)c(OC)c1
- T/C [1]: 103 % of control
- T/C [2]: 99 % of control
- T/C (dose: 240.0 mg/kg/injection, schedule: Q01DX005 (ip), vehicle: saline with Tween-80): 94 % of control

SMILES: C[n+]1c(/C=N/NC(N)=S)ccc2ccccc21
- T/C [5]: 118 % of control

SMILES: CC12Oc3ccc(Cl)cc3C1(C)c1cc(Cl)ccc1O2 (stereo not drawn)
- T/C (dose: 50.0 mg/kg/injection, schedule: Q01DX009 (ip), vehicle: acetone): 104 % of control
- T/C (dose: 100.0 mg/kg/injection, schedule: Q01DX009 (ip), vehicle: acetone): 102 % of control
- T/C (dose: 200.0 mg/kg/injection, schedule: Q01DX009 (ip), vehicle: acetone): 102 % of control

SMILES: NC(=O)N=Nc1ccc(Br)cc1
- T/C (dose: 50.0 mg/kg/injection, schedule: Q01DX005 (ip), vehicle: saline with Tween-80): 102 % of control
- T/C (dose: 100.0 mg/kg/injection, schedule: Q01DX005 (ip), vehicle: saline with Tween-80): 102 % of control
- T/C (dose: 200.0 mg/kg/injection, schedule: Q01DX005 (ip), vehicle: saline with Tween-80): 93 % of control

SMILES: [B-][N+]1(C)CC[N+]([B-])(C)CC1 (stereo not drawn)
- T/C (dose: 5.0 mg/kg/injection, schedule: Q01DX009 (ip), vehicle: saline with Tween-80): 90 % of control
- T/C (dose: 10.0 mg/kg/injection, schedule: Q01DX009 (ip), vehicle: saline with Tween-80): 95 % of control
- T/C (dose: 20.0 mg/kg/injection, schedule: Q01DX009 (ip), vehicle: saline with Tween-80): 90 % of control

SMILES: CS/C(=C1/C(=O)N(c2ccccc2)N=C1c1ccc(Br)cc1)N1CC1
- T/C [3]: 95 % of control
- T/C [4]: 101 % of control

SMILES: C#Cc1cccc(N=Cc2ccc(C=Nc3cccc(C#C)c3)cc2)c1
- T/C (dose: 6.25 mg/kg/injection, schedule: Q01DX009 (ip), vehicle: saline with Tween-80): 104 % of control
- T/C [6]: 112 % of control
- T/C [7]: 86 % of control
- T/C (dose: 200.0 mg/kg/injection, schedule: Q01DX009 (ip), vehicle: saline with Tween-80): 88 % of control

SMILES: Cc1ccc2c[n+]3ccccc3c(-c3ccccc3)c2c1
- T/C (dose: 1.56 mg/kg/injection, schedule: Q04DX003 (ip), vehicle: Klucel (hydroxypropylcellulose) (HPC)): 100 % of control
- T/C (dose: 3.12 mg/kg/injection, schedule: Q04DX003 (ip), vehicle: Klucel (hydroxypropylcellulose) (HPC)): 100 % of control

SMILES: O=C(Oc1cc(O)cc2[o+]c(-c3ccc(O)cc3)c(O)cc12)c1ccccc1
- T/C [8]: 96 % of control
- T/C [9]: 109 % of control
- T/C (dose: 200.0 mg/kg/injection, schedule: Q01DX005 (ip), vehicle: Klucel (hydroxypropylcellulose) (HPC)): 96 % of control

SMILES: O=S(=O)(Nc1ccc(CCc2ccc(NS(=O)(=O)c3ccccc3)cc2)cc1)c1ccccc1
- T/C (dose: 100.0 mg/kg/injection, schedule: Q01DX001 (ip), vehicle: saline with Tween-80): 95 % of control
- T/C (dose: 200.0 mg/kg/injection, schedule: Q01DX001 (ip), vehicle: saline with Tween-80): 91 % of control
- T/C (dose: 400.0 mg/kg/injection, schedule: Q01DX001 (ip), vehicle: saline with Tween-80): 91 % of control

SMILES: O=C(O)C1CSC(c2ccccc2)N1 (stereo not drawn)
- T/C [6]: 100 % of control and 101 % of control
- T/C [7]: 102 % of control and 103 % of control
- T/C (dose: 50.0 mg/kg/injection, schedule: Q01DX009 (ip), vehicle: saline with Tween-80): 100 % of control
- T/C [5]: 100 % of control

SMILES: CCNC(=O)OCc1c(C)nc2n1CCS2
- T/C [8]: 115 % of control
- T/C [9]: 112 % of control

SMILES: O=C1c2ccccc2CCCC12OC2c1cccnc1 (stereo not drawn)
- T/C (dose: 25.0 mg/kg/injection, schedule: Q01DX009 (ip), vehicle: Klucel (hydroxypropylcellulose) (HPC)): 100 % of control
- T/C (dose: 50.0 mg/kg/injection, schedule: Q01DX009 (ip), vehicle: Klucel (hydroxypropylcellulose) (HPC)): 100 % of control
- T/C (dose: 100.0 mg/kg/injection, schedule: Q01DX009 (ip), vehicle: Klucel (hydroxypropylcellulose) (HPC)): 104 % of control

SMILES: CCN(CC)C(=O)N1CC1
- T/C (dose: 100.0 mg/kg/injection, schedule: Q04DX002 (ip), vehicle: saline): 102 % of control
- T/C (dose: 200.0 mg/kg/injection, schedule: Q04DX002 (ip), vehicle: saline): 100 % of control
